We go through two compounds from PMC12472947 (Pharmaceuticals, 2025).

Series [1] addresses electric eel AChE [EeAChE] (Electrophorus electricus, UniProt O42275). Description: biochemical. The class given is biochemical. The following applies: for IC50: Electric eel AChE, Ellman method, read-out: IC50(nM) ± SD AChE (EeAChE); for SI: Selectivity Index = EqBChE IC50/EeAChE IC50. The procedure:
(§1) The anticholinesterase activity was determined using Ellman’s method, adapted as follows. […] Subsequently, 60 μL of 5,5′-dithiobis(2-nitrobenzoic acid) (DTNB, 1.1 mM) and 30 μL of enzyme solution (electric eel AChE [EeAChE], human AChE [hAChE], or equine serum BChE [EqBChE], 0.20 U/mL) containing 1 mg/mL bovine serum albumin (BSA) were added. […] Enzyme activity was calculated as the percentage relative to untreated controls, subtracting the blank reference. IC50 values were derived via non-linear regression analysis of dose–response curves (Figure S4) using GraphPad Prism v7.0.

The target in series [2] is T1, equine serum BChE [EqBChE] (Equus caballus, UniProt P81908).
T1 construct: equine serum BChE [EqBChE]; from tissue; host or cells: equine serum
Put plainly: biochemical. To be noted: Ellman method, read-out: IC50(nM) ± SD BChE (EqBChE). The procedure: as §1

The nature of series [3]: Cytotoxicity (neurotoxicity) MTT assay in SH-SY5Y. To be noted: human, SH-SY5Y neuroblastoma cells; for viability at 24 h, 12.5 µM / viability at 24 h, 25 µM / viability at 24 h, 50 µM: MTT, read-out: Cell viability (% of control); for viability at 24 h: up to 25 μM, read-out: cell viability. The class given is cell-based. The procedure:
(§2) The immortalized human neuroblastoma cell line (SH-SY5Y–ATCC: CRL-2226; BCRJ:0223) was used to evaluate cytotoxicity. The cell line was cultured in Dulbecco’s Modified Eagle’s Medium and F12 in a 1:1 ratio (DMEM:F12; Sigma-Aldrich code 0697, Brazil) supplemented with 10% fetal bovine serum (FBS; Sigma-Aldrich code F2442, Brazil) and 1% streptomycin/penicillin (10,000 U/mL and 10,000 μg/mL, respectively; Nova Biotecnologia code BR30110-01, Cotia, SP, Brazil) and incubated at 37 °C with 5% CO2. The culture medium was replaced every 48 h, until the cells reached semi-confluence (≥70%). Cell passage was carried out with the aid of trypsin-EDTA/0.25% solution (Nova Biotecnologia, Brazil) and divided between 5 or 8 mL culture volumes depending on the respective bottles (25 or 75 cm^2) used.
(§3) The in vitro cytotoxicity assay evaluated cell viability using the [3-(4,5-dimethylthiazol-2yl)-2,5-diphenyl tetrazolium] bromide (MTT) reduction assay. Cells were seeded at an initial density of 5.0 × 10^4 cells/well in 96-well plates in a volume of 200 µL. […] In the next step, the culture medium was replaced by the sample solution previously described (Section 3.4.2). After 24 h exposure, the medium was replaced with 100 μL of MTT in phosphate-buffer saline (PBS), pH 7.4, at a concentration of 0.5 mg.mL^−1/well and the plates were incubated for an additional 3 h. Then, the MTT solution was removed, and 100 μL of DMSO was added to solubilize the formazan crystals. The cell viability was measured by absorbance at 562 nm using a Microplate Absorbance Reader (Kasuaki, Brazil). All concentrations tested were evaluated in nine replicates (n = 9). The variation in results was observed using ANOVA followed by Tukey’s test for multiple comparisons through GraphPad Prism v5^TM with a significance level of p < 0.05.

The subject of series [4] is SH-SY5Y neuroblastoma cells. Description: Cytotoxicity (neurotoxicity) MTT assay in SH-SY5Y. Format: cell-based. To be noted: up to 50 µM. The procedure:
as §2, §3

Series [5] relates to H2O2-damaged SH-SY5Y cells. Description: In vitro neuroprotection against H2O2 in SH-SY5Y (MTT). The following applies: for viability at 12.5 µM: Homo sapiens, SH-SY5Y, read-out: Cell viability (% of control). The procedure: For the neuroprotection assay, the cells previously cultured (Section 3.4.1) were seeded in 96-well plates at a density of 5 × 10^4 cells/well in a volume of 200 µL. The plates were incubated at 37 °C containing 5% CO2 for 24 h. After 24 h, the medium was replaced with the test solutions. […] Finally, the test solutions were removed, the cells were washed with PBS pH 7.4, and the H2O2 solution was added and maintained in contact with the cells for 24 h. After 24 h exposure, the neuroprotective capacity was assessed through cell viability using the MTT assay protocol previously described in Section 3.4.3 [52, 53].

The target in series [6] is human AChE [hAChE] (Homo sapiens, UniProt P22303). Description: biochemical. The procedure:
as §1

The target in series [7] is electric eel acetylcholinesterase (EeAChE) (Electrophorus electricus, UniProt O42275). Put plainly: Enzymatic kinetic study, EeAChE. The class given is biochemical. To be noted: AChE. The procedure:
(§4) The enzymatic kinetics of cholinesterase inhibition were determined according to an adapted Ellman’s method. All of the solutions were prepared at 20 °C in 0.02 M Tris-HCl buffer (pH 7.5; ionic strength ~0.02 M), stock solutions of test compounds were prepared in DMSO:EtOH (7:3) mixture (20 mM), and the experiment was conducted in triplicate. To a flat-bottom 96-well transparent plate (path length of 0.6 cm) were added 150 μL of treatment solutions with inhibitors 1a, 1h, and 1j at two different concentrations (Table S1) distributed in eight sets of triplicate each. Eight sets of untreated triplicates were used as a negative control. Following, there were added 60 μL of 5,5′-Dithiobis(2-nitrobenzoic acid) (DTNB, Ellman’s reagent) at 1.1 mM and 30 μL of electric eel acetylcholinesterase (EeAChE) or equine serum butyrylcholinesterase (EqBuChE) at 0.20 U/mL in the presence of 1 mg/mL bovine serum albumin (BSA). […] Ki, Ki’ (competitive and noncompetitive inhibition constants, respectively), Km (Michaelis-Menten constant), and Vmax values were calculated with Graphpad Prism v7.0 using the non-linear regression models for enzyme kinetics inhibition and enzyme kinetics–substrate vs. velocity.

The target in series [8] is T2, equine serum butyrylcholinesterase (EqBuChE) (Equus caballus, UniProt P81908).
T2 construct: equine serum BChE [EqBChE]; from tissue; host or cells: equine serum
Put plainly: Enzymatic kinetic study, EqBChE. The class given is biochemical. The following applies: BChE. The procedure: as §4

Setting [9] is: competitive inhibition constant (Table S2), read-out: Ki (nM) ± SD.
Where [10] appears, read: global non-linear regression, mixed inhibition (Table S3).

Structures are written as SMILES. “Also recorded” adds a separate entry of the source. Where two headings read alike, the source gives them in different places.

electric eel AChE [EeAChE], sequence (O42275 24-633): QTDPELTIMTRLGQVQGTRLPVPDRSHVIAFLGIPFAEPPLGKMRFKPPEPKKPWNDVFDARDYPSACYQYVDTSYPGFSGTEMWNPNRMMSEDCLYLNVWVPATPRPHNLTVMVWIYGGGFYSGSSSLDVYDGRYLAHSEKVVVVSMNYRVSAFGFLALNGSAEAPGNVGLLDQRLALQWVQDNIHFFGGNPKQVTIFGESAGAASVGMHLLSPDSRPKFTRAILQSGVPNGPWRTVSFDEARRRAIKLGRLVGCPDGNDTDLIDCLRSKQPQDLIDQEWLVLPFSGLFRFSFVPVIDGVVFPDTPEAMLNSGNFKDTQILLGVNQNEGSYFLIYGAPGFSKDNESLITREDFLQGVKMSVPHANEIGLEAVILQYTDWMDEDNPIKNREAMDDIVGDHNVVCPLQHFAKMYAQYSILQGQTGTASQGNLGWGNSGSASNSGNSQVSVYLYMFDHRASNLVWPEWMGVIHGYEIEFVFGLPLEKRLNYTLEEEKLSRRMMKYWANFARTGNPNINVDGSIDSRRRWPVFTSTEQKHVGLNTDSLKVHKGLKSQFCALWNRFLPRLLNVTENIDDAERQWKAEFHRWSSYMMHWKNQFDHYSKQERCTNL
electric eel acetylcholinesterase (EeAChE), sequence (O42275 24-633): as above
T2 sequence (P81908 whole entry): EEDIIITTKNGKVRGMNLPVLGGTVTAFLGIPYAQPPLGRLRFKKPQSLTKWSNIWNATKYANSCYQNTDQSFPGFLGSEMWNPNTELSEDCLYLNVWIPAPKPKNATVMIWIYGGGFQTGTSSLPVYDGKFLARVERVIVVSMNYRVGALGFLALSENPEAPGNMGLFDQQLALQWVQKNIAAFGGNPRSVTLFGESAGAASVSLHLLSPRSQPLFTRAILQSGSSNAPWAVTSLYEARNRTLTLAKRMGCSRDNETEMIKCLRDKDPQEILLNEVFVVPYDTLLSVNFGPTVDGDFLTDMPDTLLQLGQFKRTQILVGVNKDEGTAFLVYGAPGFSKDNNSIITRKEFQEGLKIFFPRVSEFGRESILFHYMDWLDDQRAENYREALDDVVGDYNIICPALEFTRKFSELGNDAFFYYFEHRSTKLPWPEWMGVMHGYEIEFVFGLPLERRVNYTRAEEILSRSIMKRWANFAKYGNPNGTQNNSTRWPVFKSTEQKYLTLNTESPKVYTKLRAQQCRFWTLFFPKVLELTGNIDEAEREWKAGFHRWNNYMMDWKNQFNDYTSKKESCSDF
human AChE [hAChE], sequence (P22303 32-614): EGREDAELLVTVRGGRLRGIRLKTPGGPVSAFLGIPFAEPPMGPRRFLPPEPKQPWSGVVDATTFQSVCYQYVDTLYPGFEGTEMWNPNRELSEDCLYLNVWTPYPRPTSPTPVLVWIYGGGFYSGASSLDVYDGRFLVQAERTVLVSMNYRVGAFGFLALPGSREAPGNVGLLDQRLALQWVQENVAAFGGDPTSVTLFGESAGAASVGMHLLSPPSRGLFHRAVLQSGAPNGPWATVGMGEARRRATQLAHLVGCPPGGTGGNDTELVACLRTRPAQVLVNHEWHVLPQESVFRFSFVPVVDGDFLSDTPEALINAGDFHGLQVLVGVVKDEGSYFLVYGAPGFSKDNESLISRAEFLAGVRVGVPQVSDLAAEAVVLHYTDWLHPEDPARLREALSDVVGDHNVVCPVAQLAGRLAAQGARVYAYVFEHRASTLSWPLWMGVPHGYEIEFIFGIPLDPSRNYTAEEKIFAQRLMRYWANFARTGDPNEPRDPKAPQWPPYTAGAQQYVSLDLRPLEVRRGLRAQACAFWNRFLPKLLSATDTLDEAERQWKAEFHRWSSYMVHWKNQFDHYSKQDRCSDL
T1 sequence (P81908 whole entry): as the sequence (P81908 whole entry) above

As for `COc1ccc(Cn2cc(-c3cc4ccc(OCCN5CCCCC5)cc4oc3=O)nn2)cc1` [Compound 1k, 3-(1-(4-Methoxybenzyl)-1H-1,2,3-triazol-4-yl)-7-(2-(piperidin-1-yl)ethoxy)-2H-chromen-2-one], in series [1], the IC50 is 4.58 ± 0.62 nM and the SI is on record as 443. Also, in series [2], the IC50 was found to be 2080 ± 99 nM. In series [3], the viability at 24 h, 12.5 µM is 99%; the viability at 24 h, 25 µM was found to be 106%; the viability at 24 h, 50 µM turned out to be 84%; the viability at 24 h was at least 70%. Also, in series [4], the neurotoxicity result is given as “non-neurotoxic”. Besides, the “neuroprotection against H2O2-induced oxidative stress” value in series [5] (12.5 µM) is reported as “neuroprotective effects”. The viability at 12.5 µM in series [5] worked out at 92%.
Turning to `COc1cccc(Cn2cc(-c3cc4ccc(OCCN5CCCCC5)cc4oc3=O)nn2)c1` [Compound 1j, 3-(1-(3-Methoxybenzyl)-1H-1,2,3-triazol-4-yl)-7-(2-(piperidin-1-yl)ethoxy)-2H-chromen-2-one], the IC50 in series [1] is 4.16 ± 0.11 nM; in series [2] it was 2880 ± 120 nM; in series [6] (Human AChE, Ellman method, read-out: IC50(nM) ± SD AChE (hAChE) (converted)) it was 12.5 nM. For the same compound, the SI worked out at 686 in series [1] and 222 in series [6] (SI = EqBChE IC50/hAChE). The Ki amounted to 0.508 ± 0.0001 nM in series [7] (setting [9]); 0.637 nM in series [7] (corrected for tight-binding using the Morrison equation (Table S3), read-out: Ki ± SE (95% CI)); 615 ± 0.58 nM in series [8] (setting [9]); 944 ± 200 nM in series [8] (free enzyme (Table S3), read-out: Ki ± SE (95% CI)). In addition, the “α ± SE (95% CI)” value in series [7] (setting [10]) is listed as 4.248 ± 1.415; in series [8] (setting [10]), 3.349 ± 1.984. Besides, the “Vmax ± SD” value is on record as 5.21 ± 0.0656 1 × 10^3 nM/min in series [7] (inhibitor 0.003 μM), 3.90 ± 0.1517 1 × 10^3 nM/min in series [7] (inhibitor 0.005 μM), 5.97 ± 0.1562 1 × 10^3 nM/min in series [8] (inhibitor 1.9 μM) and 4.12 ± 0.2257 1 × 10^3 nM/min in series [8] (inhibitor 3.9 μM). In series [3], the viability at 24 h, 12.5 µM is 71%. Further, the viability at 24 h, 25 µM in series [3] was determined as 70%. Further, the viability at 24 h, 50 µM in series [3] came out at 63%. Moreover, in series [3], the viability at 24 h is at least 70%. Further, in series [4], the neurotoxicity entry is “non-neurotoxic; also recorded: neurotoxicity in high concentrations”. Also, the viability at 12.5 µM in series [5] turned out to be 68%.
